Measurements published in patent US6841519B1, “Isoxazoline derivatives and herbicides containing the same as the active ingredient” (Kumiai Chemical Industry Co., Ltd., priority 1999, dated 2005).

Key:
Assay type in all cases: in vivo
[1] = tested on: Echinochloa crus-galli (L.) Beauv. var. crusgall (Ec); experiment: Test for herbicidal effect by upland field soil treatment (Test Example 2), Ec
In short: (§1)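 Echinochloa crus-galli and Setaria viridis were sown in upland field soil and covered, then the soil surface was sprayed with water-diluted wettable powder at 100 g active ingredient per 10 ares (100 liters per 10 ares). Plants were grown in a greenhouse and scored on a standard scale on day 21.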

[2] = tested on: Setaria viridis (L.) Beauv. (Se); experiment: Test for herbicidal effect by upland field soil treatment (Test Example 2), Se
In short: as §1

[3] = tested on: Echinochloa oryzicola Vasing. (Eo); experiment: Test for herbicidal effect by paddy field soil treatment (Test Example 1); conditions: application amount (active ingredient) 100 g/10 a, examined at the 21st day from the treatment, index per Table 40
In short: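 Eo seeds sown in puddled paddy soil under 3 cm water; next day a water-diluted wettable powder was dropped onto the water surface at 100 g active ingredient per 10 ares. Herbicidal effect scored on a standard scale 21 days after treatment, greenhouse-grown.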

[4] = tested on: Echinochloa oryzicola Vasing. (Eo); experiment: Test for crop selectivity by paddy field soil treatment (Test Example 4), herbicidal effect on Eo; conditions: 100 g/10 a active ingredient, 21st day
Experimental: (§2) [table] <Test Example 4> Test For Crop Selectivity By Paddy Field Soil Treatment A paddy field soil was filled in a plastic pot of 100 cm^2 and subjected to puddling. Seeds of Echinochloa oryzicola Vasing. (Eo) were sowed; two-leaf stage seedlings of rice (Or) were transplanted in a depth of 2 cm; and water was filled in a depth of 3 cm. Next day, wettable powders produced in accordance with the Formulation 1 were diluted with water and dropped on the water surface. The application amount of each wettable powder was 100 g per 10 ares in terms of the active ingredient. Then, breeding was made in a greenhouse. At the 21st day from the treatment, the phytotoxicity and herbicidal effect of each wettable powder were examined in accordance with the standard shown in Table 40.

rice (Or) = experiment: Test for crop selectivity by paddy field soil treatment (Test Example 4), phytotoxicity to rice; conditions: transplanted two-leaf stage rice, 100 g/10 a active ingredient, 21st day
Experimental: as §2

[5] = application amount (active ingredient) 100 g/10 a, examined at the 21st day from the treatment, index per Table 40
[6] = 100 g/10 a active ingredient, examined at 21st day

Compound | Herbicidal effect to Ec [1, 5] | Herbicidal effect to Se [2, 5] | Herbicidal effect to Eo [3] | Herbicidal effect to Eo [4] | Phytotoxicity to Or (rice (Or)) | Herbicidal effect to Ec [1, 6] | Herbicidal effect to Se [2, 6]
CCC1(C)CC(S(=O)(=O)Cc2cccc(F)c2)=NO1 (stereo not shown) [Compound 1-190] | 5 (A herbicidal effect or phytotoxicity of 90% or more) | 5 (A herbicidal effect or phytotoxicity of 90% or more) | 5 (A herbicidal effect or phytotoxicity of 90% or more) | 5 (A herbicidal effect or phytotoxicity of 90% or more) | 1 (A herbicidal effect or phytotoxicity of 10% to less than 30%) | – | –
CCCOC(=O)c1ccccc1CS(=O)(=O)C1=NOC(C)(C)C1 [Compound 1-594] | – | – | 5 (A herbicidal effect or phytotoxicity of 90% or more) | 5 (A herbicidal effect or phytotoxicity of 90% or more) | 1 (A herbicidal effect or phytotoxicity of 10% to less than 30%) | 5 (A herbicidal effect or phytotoxicity of 90% or more) | 4 (A herbicidal effect or phytotoxicity of 70% to less than 90%)
CC1(C)CC(S(=O)(=O)Cc2ccccc2OC2CCCCC2)=NO1 [Compound 1-610] | – | – | 5 (A herbicidal effect or phytotoxicity of 90% or more) | 5 (A herbicidal effect or phytotoxicity of 90% or more) | 1 (A herbicidal effect or phytotoxicity of 10% to less than 30%) | 5 (A herbicidal effect or phytotoxicity of 90% or more) | 5 (A herbicidal effect or phytotoxicity of 90% or more)
CS(=O)(=O)C1=NOC2(CCC2)C1 [Compound 2-29] | – | – | 5 (A herbicidal effect or phytotoxicity of 90% or more) | 5 (A herbicidal effect or phytotoxicity of 90% or more) | 1 (A herbicidal effect or phytotoxicity of 10% to less than 30%) | 5 (A herbicidal effect or phytotoxicity of 90% or more) | 5 (A herbicidal effect or phytotoxicity of 90% or more)
CC1(CO)CC(S(=O)(=O)Cc2c(F)cccc2F)=NO1 (stereo not shown) [Compound 1-394] | 4 (A herbicidal effect or phytotoxicity of 70% to less than 90%) | – | 5 (A herbicidal effect or phytotoxicity of 90% or more) | 5 (A herbicidal effect or phytotoxicity of 90% or more) | 1 (A herbicidal effect or phytotoxicity of 10% to less than 30%) | – | –
CC(C)COC(=O)c1cccc(Cl)c1CS(=O)(=O)C1=NOC(C)(C)C1 [Compound 1-624] | – | – | 5 (A herbicidal effect or phytotoxicity of 90% or more) | 5 (A herbicidal effect or phytotoxicity of 90% or more) | 1 (A herbicidal effect or phytotoxicity of 10% to less than 30%) | – | –
CC1(C)CC(S(=O)(=O)Cc2ccccc2C(=O)OCc2ccccc2Cl)=NO1 [Compound 1-612] | – | – | 5 (A herbicidal effect or phytotoxicity of 90% or more) | 5 (A herbicidal effect or phytotoxicity of 90% or more) | 0 (A herbicidal effect or phytotoxicity of 0% to less than 10%) | – | –
CCC1(C)CC(S(=O)(=O)CCCc2ccccc2)=NO1 (stereo not shown) [Compound 1-457] | – | – | 5 (A herbicidal effect or phytotoxicity of 90% or more) | 5 (A herbicidal effect or phytotoxicity of 90% or more) | 1 (A herbicidal effect or phytotoxicity of 10% to less than 30%) | – | –
CC(C)COC(=O)c1ccccc1CS(=O)(=O)C1=NOC(C)(C)C1 [Compound 1-598] | – | – | 5 (A herbicidal effect or phytotoxicity of 90% or more) | 5 (A herbicidal effect or phytotoxicity of 90% or more) | 1 (A herbicidal effect or phytotoxicity of 10% to less than 30%) | – | –
CC1(C)CC(S(=O)(=O)Cc2ccccc2C(=O)OC2CCCC2)=NO1 [Compound 1-601] | – | – | 5 (A herbicidal effect or phytotoxicity of 90% or more) | 5 (A herbicidal effect or phytotoxicity of 90% or more) | 1 (A herbicidal effect or phytotoxicity of 10% to less than 30%) | 5 (A herbicidal effect or phytotoxicity of 90% or more) | –
CC1(Cc2ccccc2)CC(S(=O)(=O)Cc2c(F)cccc2F)=NO1 (stereo not shown) [Compound 1-377] | – | – | 5 (A herbicidal effect or phytotoxicity of 90% or more) | 5 (A herbicidal effect or phytotoxicity of 90% or more) | 0 (A herbicidal effect or phytotoxicity of 0% to less than 10%) | – | –
O=S(=O)(Cc1c(F)cccc1F)C1=NOC2CCCCCCC12 (stereo not shown) [Compound 1-519] | – | – | 5 (A herbicidal effect or phytotoxicity of 90% or more) | 5 (A herbicidal effect or phytotoxicity of 90% or more) | 0 (A herbicidal effect or phytotoxicity of 0% to less than 10%) | – | –
CC1(C)CC(S(=O)(=O)Cc2c(Cl)cccc2C(=O)OCc2ccc(Cl)cc2)=NO1 [Compound 1-628] | – | – | 5 (A herbicidal effect or phytotoxicity of 90% or more) | 5 (A herbicidal effect or phytotoxicity of 90% or more) | 0 (A herbicidal effect or phytotoxicity of 0% to less than 10%) | – | –
CC1(C)CC(S(=O)(=O)Cc2ccccc2C(=O)OCc2ccc(Cl)cc2)=NO1 [Compound 1-614] | – | – | 5 (A herbicidal effect or phytotoxicity of 90% or more) | 5 (A herbicidal effect or phytotoxicity of 90% or more) | 0 (A herbicidal effect or phytotoxicity of 0% to less than 10%) | – | –
CCOCCOc1ccccc1CS(=O)(=O)C1=NOC(C)(C)C1 [Compound 1-580] | – | – | 5 (A herbicidal effect or phytotoxicity of 90% or more) | 5 (A herbicidal effect or phytotoxicity of 90% or more) | 1 (A herbicidal effect or phytotoxicity of 10% to less than 30%) | 5 (A herbicidal effect or phytotoxicity of 90% or more) | –
CC(C)C1(C)CC([S+]([O-])Cc2c(F)cccc2F)=NO1 (stereo not shown) [Compound 1-367] | – | – | 5 (A herbicidal effect or phytotoxicity of 90% or more) | 5 (A herbicidal effect or phytotoxicity of 90% or more) | 1 (A herbicidal effect or phytotoxicity of 10% to less than 30%) | – | –
CC1(C)CC(S(=O)(=O)Cc2c(Cl)cccc2C(=O)OCc2ccccc2)=NO1 [Compound 1-625] | – | – | 5 (A herbicidal effect or phytotoxicity of 90% or more) | 5 (A herbicidal effect or phytotoxicity of 90% or more) | 1 (A herbicidal effect or phytotoxicity of 10% to less than 30%) | – | –
CC1(COCc2c(F)cccc2F)CC(S(=O)(=O)Cc2c(F)cccc2F)=NO1 (stereo not shown) [Compound 1-401] | – | – | 5 (A herbicidal effect or phytotoxicity of 90% or more) | 5 (A herbicidal effect or phytotoxicity of 90% or more) | 0 (A herbicidal effect or phytotoxicity of 0% to less than 10%) | – | –
CC1(C)CC(S(=O)(=O)Cc2ccccc2OCc2ccccc2)=NO1 [Compound 1-588] | – | – | 5 (A herbicidal effect or phytotoxicity of 90% or more) | 5 (A herbicidal effect or phytotoxicity of 90% or more) | 1 (A herbicidal effect or phytotoxicity of 10% to less than 30%) | – | –
CCC1(C)CC(S(=O)(=O)CCc2ccccc2)=NO1 (stereo not shown) [Compound 1-456] | – | – | 5 (A herbicidal effect or phytotoxicity of 90% or more) | 5 (A herbicidal effect or phytotoxicity of 90% or more) | 0 (A herbicidal effect or phytotoxicity of 0% to less than 10%) | – | –
O=S(=O)(Cc1c(F)cccc1F)C1=NOC2CCCCCC12 (stereo not shown) [Compound 1-518] | – | – | – | 5 (A herbicidal effect or phytotoxicity of 90% or more) | 1 (A herbicidal effect or phytotoxicity of 10% to less than 30%) | 5 (A herbicidal effect or phytotoxicity of 90% or more) | 4 (A herbicidal effect or phytotoxicity of 70% to less than 90%)
CC1(C)CC(S(=O)(=O)Cc2c(Cl)cccc2C(=O)OCc2ccccc2Cl)=NO1 [Compound 1-626] | – | – | 5 (A herbicidal effect or phytotoxicity of 90% or more) | 5 (A herbicidal effect or phytotoxicity of 90% or more) | 0 (A herbicidal effect or phytotoxicity of 0% to less than 10%) | – | –
CCCCOC(=O)c1cccc(Cl)c1CS(=O)(=O)C1=NOC(C)(C)C1 [Compound 1-622] | – | – | 5 (A herbicidal effect or phytotoxicity of 90% or more) | 5 (A herbicidal effect or phytotoxicity of 90% or more) | 1 (A herbicidal effect or phytotoxicity of 10% to less than 30%) | 5 (A herbicidal effect or phytotoxicity of 90% or more) | –
CC1(C)CC(S(=O)(=O)Cc2ccccc2N)=NO1 [Compound 1-552] | – | – | 4 (A herbicidal effect or phytotoxicity of 70% to less than 90%) | 4 (A herbicidal effect or phytotoxicity of 70% to less than 90%) | 1 (A herbicidal effect or phytotoxicity of 10% to less than 30%) | – | –
